Laboratory results taken from ChEMBL document CHEMBL5126505, “Adenosine receptor antagonists: Recent advances and therapeutic perspective” (Eur J Med Chem, 2022).
≈ marks a conversion by molar mass, not a printed value. Blank lines part the entries; values can stand above or below the compound they belong to.

Key:
Adenosine receptor A2a [1] = target: T1, Adenosine receptor A2a (Homo sapiens, UniProt P29274); assay: Binding affinity to human adenosine A2A receptor measured by radioligand-based affinity assay
T1 sequence (P29274 whole entry): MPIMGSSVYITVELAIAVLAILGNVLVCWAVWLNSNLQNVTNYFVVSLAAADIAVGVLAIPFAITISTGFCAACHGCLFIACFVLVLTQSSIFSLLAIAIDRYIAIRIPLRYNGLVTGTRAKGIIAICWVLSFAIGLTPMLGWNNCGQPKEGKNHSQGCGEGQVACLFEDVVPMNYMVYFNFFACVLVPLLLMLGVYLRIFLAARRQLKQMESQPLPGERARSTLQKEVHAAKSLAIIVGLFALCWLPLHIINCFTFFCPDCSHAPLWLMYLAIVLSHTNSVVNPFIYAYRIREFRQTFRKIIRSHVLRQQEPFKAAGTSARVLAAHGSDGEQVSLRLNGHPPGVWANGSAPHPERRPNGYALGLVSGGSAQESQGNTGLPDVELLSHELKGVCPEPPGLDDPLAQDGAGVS

Adenosine receptor A3 [2] = target: T2, Adenosine receptor A3 (Homo sapiens, UniProt P0DMS8); assay: biochemical
T2 sequence (P0DMS8 whole entry): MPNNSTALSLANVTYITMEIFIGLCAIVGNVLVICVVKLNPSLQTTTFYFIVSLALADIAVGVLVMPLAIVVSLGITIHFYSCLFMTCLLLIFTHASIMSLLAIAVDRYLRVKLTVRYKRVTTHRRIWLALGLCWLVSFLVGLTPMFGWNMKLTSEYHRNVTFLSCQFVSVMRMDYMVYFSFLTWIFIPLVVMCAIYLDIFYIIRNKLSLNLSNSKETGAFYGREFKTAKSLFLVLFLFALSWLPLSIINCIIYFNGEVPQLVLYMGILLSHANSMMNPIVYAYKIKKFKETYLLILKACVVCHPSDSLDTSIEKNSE
Description: Displacement of [3H]HEMADO from human adenosine A3 receptor expressed in CHO cells measured by radioligand competition assay

Adenosine receptor A2a [3] = target: T1, Adenosine receptor A2a
Adenosine receptor A3 [4] = target: T2, Adenosine receptor A3
Description: Binding affinity to human adenosine A3A receptor

Adenosine receptor A3 [5] = target: T2, Adenosine receptor A3; remark: listed apart in the source
Description: Binding affinity to human adenosine A3A receptor measured by radioligand-based affinity assay

Adenosine receptor A2a [6] = target: T1, Adenosine receptor A2a; remark: listed apart in the source
in vivo = conditions: plasma
Description: Cmax in plasma (unknown origin)

Adenosine receptor A1 [7] = target: T3, Adenosine receptor A1 (Homo sapiens, UniProt P30542)
T3 sequence (P30542 whole entry): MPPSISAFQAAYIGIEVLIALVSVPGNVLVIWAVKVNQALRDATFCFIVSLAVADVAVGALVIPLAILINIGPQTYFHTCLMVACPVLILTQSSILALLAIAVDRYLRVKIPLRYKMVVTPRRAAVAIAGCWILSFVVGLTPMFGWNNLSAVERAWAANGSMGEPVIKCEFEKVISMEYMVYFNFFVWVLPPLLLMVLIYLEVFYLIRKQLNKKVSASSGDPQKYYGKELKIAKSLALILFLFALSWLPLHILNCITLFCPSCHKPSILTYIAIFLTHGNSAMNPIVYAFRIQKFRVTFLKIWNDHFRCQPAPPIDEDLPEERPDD
Description: Binding affinity to human adenosine A1 receptor

Adenosine receptor A2a [8] = target: T1, Adenosine receptor A2a; remark: listed apart in the source
Description: Antagonist activity at human adenosine A2A receptor expressed in CHO cells assessed as inhibition of NECA-induced cAMP production measured by scintillation counter assay

Adenosine receptor A1 [9] = target: T3, Adenosine receptor A1; remark: listed apart in the source
Description: Binding affinity to human adenosine A1A receptor measured by radioligand-based affinity assay

physchem [10] = conditions: simulated gastric fluid
Description: Solubility of the compound in simulated gastric fluid

physchem [11] = conditions: water
Description: Solubility of the compound in water

physchem [12] = conditions: phosphate buffered saline
Description: Solubility of the compound in phosphate buffered saline

physchem [13] = conditions: simulated intestinal fluid
Description: Solubility of the compound in simulated intestinal fluid

Adenosine receptor A2a [14] = target: T1, Adenosine receptor A2a; remark: listed apart in the source
Description: Antagonist activity at adenosine A2A receptor (unknown origin)

Adenosine receptor A2a [15] = target: T1, Adenosine receptor A2a; assay: Antagonist activity at human adenosine A2A receptor expressed in CHO cells assessed as inhibition of NECA-induced cAMP production; assay type: functional, cell-based
Adenosine receptor A1 [16] = target: T3, Adenosine receptor A1; remark: listed apart in the source
Description: Antagonist activity at human adenosine A1A receptor

Adenosine receptor A2b = target: T4, Adenosine receptor A2b (Homo sapiens, UniProt P29275)
T4 sequence (P29275 whole entry): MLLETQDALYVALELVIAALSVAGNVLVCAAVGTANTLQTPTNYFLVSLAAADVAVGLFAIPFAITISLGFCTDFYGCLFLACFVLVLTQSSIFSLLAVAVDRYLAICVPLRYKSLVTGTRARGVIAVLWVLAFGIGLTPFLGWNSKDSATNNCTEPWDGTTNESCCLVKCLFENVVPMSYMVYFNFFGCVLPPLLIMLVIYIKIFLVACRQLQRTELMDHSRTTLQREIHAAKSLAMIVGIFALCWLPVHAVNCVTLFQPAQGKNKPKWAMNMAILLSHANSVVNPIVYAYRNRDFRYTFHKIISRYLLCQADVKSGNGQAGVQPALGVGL
Description: Binding affinity to human adenosine A2B receptor

Ki (Adenosine receptor A3 [2]): 5320 nM
SMILES: COc1ccc(-c2cc3cccc(OC)c3oc2=O)cc1

Ki (Adenosine receptor A3 [2]): 3930 nM
SMILES: CCOc1cccc2cc(-c3ccccc3)c(=O)oc12

Ki (Adenosine receptor A3 [2]): 258 nM
SMILES: CCOc1cccc2cc(-c3ccc(OC)cc3)c(=O)oc12

Ki (Adenosine receptor A3 [2]): 2680 nM
SMILES: Cc1ccc(-c2cc3cc(C)ccc3oc2=O)cc1

Ki (Adenosine receptor A3 [5]): 24 nM
SMILES: Cc1nc(NC(=O)c2ccccc2)c2nn(-c3ccccc3)cc2n1

Ki (Adenosine receptor A2a [6]): 2.9 nM
SMILES: COc1ccccc1Cc1cc2c(N)nc(-c3ccc(C)o3)nc2s1

Ki (Adenosine receptor A2a [6]): 3.7 nM
SMILES: Cc1ccc(-c2nc(N)c3cc(Cc4ccccc4Cl)sc3n2)o1

Ki (Adenosine receptor A2a [8]): 423 nM
SMILES: Nc1nc(CCCc2ccccc2)nc2cn(-c3ccccc3)nc12

Ki (Adenosine receptor A3 [2]): 5200 nM
SMILES: CCOC(=O)c1c(NC(=O)c2sc(Nc3ccc(OC)cc3)nc2-c2ccc(C)cc2)sc2c1CCCC2

Ki (Adenosine receptor A1 [7]): 874 nM
SMILES: CCn1c(=O)c2c(nc(COc3ccccc3)n2C)n(CC)c1=O

Ki (Adenosine receptor A2a [6]): 9.54 nM
Ki (Adenosine receptor A1 [7]): 6.34 nM
SMILES: Cc1ccc(-c2cc(-c3cccc(C(=O)N4CCCCC4)c3)nc(N)n2)o1

Ki (Adenosine receptor A1 [9]): 3540 nM
Ki (Adenosine receptor A2a [1]): 1950 nM
SMILES: Nc1nc(-c2ccccc2)cc(-c2cccc(OC(=O)N3CCCCC3)c2)n1

Ki (Adenosine receptor A2a [3]): 7.7 nM
SMILES: Oc1ccc(-c2cnc(N[C@H]3CC[C@H](O)CC3)nc2-c2ccccc2)cc1Cl

Ki (Adenosine receptor A2a [14]): 6 nM
SMILES: CCCn1c(=O)[nH]c2nc(-c3cnn(Cc4cccc(C(F)(F)F)c4)c3)[nH]c2c1=O

IC50 (Adenosine receptor A1 [9]): 1480 nM
SMILES: O=c1[nH]c(N2CCCC2)nc2nccc(-c3ccc(Cl)cc3)c12

The remaining lines, values behind:

SMILES: S=c1sc2c(ncn3nc(-c4ccco4)nc23)n1CCc1ccccc1
Ki (Adenosine receptor A2a [1]): 6.3 nM

SMILES: CCN1CCCC(Nc2cc(C)nc(NC(=N)Nc3ccc(Cl)c(Cl)c3)n2)C1 (centres undefined)
IC50 (Adenosine receptor A2a [3]): 546 nM

SMILES: COc1ccc(OC)c(-c2cc(NC(C)=O)nc(-c3cc(OC)ccc3OC)n2)c1
Ki (Adenosine receptor A3 [4]): 7 nM

SMILES: COc1ccc(-c2cc(NC(C)=O)nc(-c3ccc(OC)c(OC)c3)n2)cc1OC
Ki (Adenosine receptor A3 [4]): 7 nM

SMILES: Cc1ccc(-c2nc(N)c3cc(Cc4ccccc4)sc3n2)o1
Cmax (in vivo): 5 µM
Ki (Adenosine receptor A2a [6]): 298 nM
Ki (Adenosine receptor A1 [7]): 11.1 nM

SMILES: CC(C)n1cc2c(Cl)nc(N(C(=O)c3ccccc3)C(=O)c3ccccc3)nc2n1
Ki (Adenosine receptor A3 [5]): 900 nM

SMILES: CCOC(=O)c1c(NC(=O)c2sc(Nc3ccc(C)cc3)nc2-c2ccc(C)cc2)sc2c1CCCC2
Ki (Adenosine receptor A3 [2]): 2200 nM

SMILES: CCn1c(=O)c2c(nc(CCCc3ccccc3)n2CC)n(CC)c1=O
Ki (Adenosine receptor A1 [7]): 164 nM

SMILES: CN1CCN(C(=O)Oc2cccc(-c3cc(-c4ccccc4)nc(N)n3)c2)CC1
Ki (Adenosine receptor A1 [9]): 3540 nM
Ki (Adenosine receptor A2a [1]): 1950 nM

SMILES: Nc1nc(-c2ccccc2)cc(-c2cccc(OC(=O)N3CCOCC3)c2)n1
Ki (Adenosine receptor A1 [9]): 3540 nM
Ki (Adenosine receptor A2a [1]): 1950 nM

SMILES: OC[C@@H]1CCCN1c1ncnc2sc(Nc3cccc(Br)c3)nc12
solubility (physchem [10]): 3500 µg/mL (≈ 8.61 mM)
solubility (physchem [11]): 4300 µg/mL (≈ 10.6 mM)
solubility (physchem [12]): 4800 µg/mL (≈ 11.8 mM)
solubility (physchem [13]): 3500 µg/mL (≈ 8.61 mM)

SMILES: CCn1c(=O)c2c(nc(COc3ccc(Br)cc3)n2C)n(CC)c1=O
Ki (Adenosine receptor A1 [7]): 264 nM

SMILES: CCn1c(=O)c2c(nc(COc3ccc(OC)cc3)n2C)n(CC)c1=O
Ki (Adenosine receptor A2a [6]): 237 nM

SMILES: CCOc1ccc(-c2cn3c(=O)n(-c4ccccc4)nc3c(N)n2)cc1
IC50 (Adenosine receptor A2a [15]): > 30000 nM

SMILES: COc1ccc2oc(=O)c(C(=O)Nc3cccc(O)c3)cc2c1
Ki (Adenosine receptor A3 [4]): 22000 nM
Ki (Adenosine receptor A1 [7]): 41000 nM

SMILES: CCCn1c(Oc2cccc(C(F)(F)F)c2)nc2nc(C3CCCC3)[nH]c2c1=O
Ki (Adenosine receptor A1 [16]): 2 nM

SMILES: CCCn1c(OC2CCOC2)nc2nc(C3CCCC3)[nH]c2c1=O (centres undefined)
Ki (Adenosine receptor A1 [7]): 57 nM

SMILES: Cc1cccc(NC(=O)c2cc3ccccc3oc2=O)c1
Ki (Adenosine receptor A3 [4]): 2400 nM

SMILES: CC1=C(C(=O)OC(C)C(F)(F)F)C(c2ccco2)n2c(nc3ccccc32)N1 (centres undefined)
Ki (Adenosine receptor A2b): 29.1 nM
